Measured values: publication PMC9856672, “SGC-CAMKK2-1: A Chemical Probe for CAMKK2” (Cells, 2023)

How the values were obtained:
[1] = biological target: T1, RSK1(Kin.Dom.2-C-terminal) (Homo sapiens, UniProt Q15418); experiment: KINOMEscan 1 μM, RSK1(Kin.Dom.2-C-terminal); assay type: binding; conditions: 1000 nM; Entrez RPS6KA1; read-out: Percent Control
T1 construct: RSK1(Kin.Dom.2-C-terminal); purchased Eurofins DiscoverX KINOMEscan
Source text: (§1) Supplement cells-12-00287-s001.zip/File S2. KinomeScan data for the CAMKK2 probe and negative control.xlsx, sheet "SGC-CAMKK2-1" | column: Percent Control

[2] = biological target: T2, GRK4 (Homo sapiens, UniProt P32298); experiment: KINOMEscan 1 μM, GRK4; assay type: binding; conditions: 1000 nM; Entrez GRK4; read-out: Percent Control
T2 construct: purchased Eurofins DiscoverX KINOMEscan
Source text: as §1

[3] = biological target: T3, RIOK1 (Homo sapiens, UniProt Q9BRS2); experiment: KINOMEscan 1 μM, RIOK1; assay type: binding; conditions: 1000 nM; Entrez RIOK1; read-out: Percent Control
T3 construct: purchased Eurofins DiscoverX KINOMEscan
Source text: as §1

[4] = biological target: T4, ACVR2A (Homo sapiens, UniProt P27037); experiment: KINOMEscan 1 μM, ACVR2A; assay type: binding; conditions: 1000 nM; Entrez ACVR2A; read-out: Percent Control
T4 construct: purchased Eurofins DiscoverX KINOMEscan
T4 sequence (P27037 20-513): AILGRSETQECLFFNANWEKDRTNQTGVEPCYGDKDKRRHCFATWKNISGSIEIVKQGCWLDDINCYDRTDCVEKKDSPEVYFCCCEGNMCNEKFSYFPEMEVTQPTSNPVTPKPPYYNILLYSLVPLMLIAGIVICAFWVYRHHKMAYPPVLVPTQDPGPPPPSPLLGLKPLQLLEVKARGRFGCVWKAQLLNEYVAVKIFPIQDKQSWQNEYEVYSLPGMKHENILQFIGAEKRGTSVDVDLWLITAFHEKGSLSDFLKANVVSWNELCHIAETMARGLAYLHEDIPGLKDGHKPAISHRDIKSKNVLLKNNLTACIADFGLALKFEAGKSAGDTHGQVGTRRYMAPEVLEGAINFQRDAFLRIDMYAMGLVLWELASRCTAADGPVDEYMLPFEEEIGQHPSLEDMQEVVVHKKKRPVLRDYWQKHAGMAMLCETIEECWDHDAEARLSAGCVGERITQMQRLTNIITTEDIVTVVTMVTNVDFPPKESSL
Source text: as §1

[5] = biological target: T5, MAP4K4 (Homo sapiens, UniProt O95819); experiment: KINOMEscan 1 μM, MAP4K4; assay type: binding; conditions: 1000 nM; Entrez MAP4K4; read-out: Percent Control
T5 construct: purchased Eurofins DiscoverX KINOMEscan
Source text: as §1

[6] = biological target: T6, EGFR(L747-S752del, P753S) (Homo sapiens, UniProt P00533, DEL747-752/P753S); experiment: KINOMEscan 1 μM, EGFR(L747-S752del, P753S); assay type: binding; conditions: 1000 nM; Entrez EGFR; read-out: Percent Control
T6 construct: purchased Eurofins DiscoverX KINOMEscan
T6 sequence (P00533 with tags, fused parts or gaps DEL747-752/P753S limits assumed): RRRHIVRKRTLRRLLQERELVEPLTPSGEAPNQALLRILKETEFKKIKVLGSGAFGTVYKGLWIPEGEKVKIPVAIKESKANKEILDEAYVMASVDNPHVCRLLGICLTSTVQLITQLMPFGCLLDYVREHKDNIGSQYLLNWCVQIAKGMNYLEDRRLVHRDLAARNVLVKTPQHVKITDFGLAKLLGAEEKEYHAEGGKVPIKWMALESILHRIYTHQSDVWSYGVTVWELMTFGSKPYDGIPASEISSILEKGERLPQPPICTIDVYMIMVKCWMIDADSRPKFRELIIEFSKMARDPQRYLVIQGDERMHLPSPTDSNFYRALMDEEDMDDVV
Source text: as §1

[7] = biological target: T7, FGFR4 (Homo sapiens, UniProt P22455); experiment: KINOMEscan 1 μM, FGFR4; assay type: binding; conditions: 1000 nM; Entrez FGFR4; read-out: Percent Control
T7 construct: purchased Eurofins DiscoverX KINOMEscan
Source text: as §1

[8] = biological target: T8, CAMK2D (Homo sapiens, UniProt Q13557); experiment: KINOMEscan 1 μM, CAMK2D; assay type: binding; conditions: 1000 nM; Entrez CAMK2D; read-out: Percent Control
T8 construct: purchased Eurofins DiscoverX KINOMEscan
Source text: as §1

[9] = biological target: T9, QSK (Homo sapiens, UniProt Q9Y2K2); experiment: DiscoverX KINOMEscan binding assay at 1 μM, QSK; conditions: QSK (KIAA0999); Compound Concentration 1000 nM; read-out: Percent Control
T9 construct: purchased Eurofins DiscoverX KINOMEscan
Source text: as §1

[10] = biological target: T10, ERBB4 (Homo sapiens, UniProt Q15303); experiment: KINOMEscan 1 μM, ERBB4; assay type: binding; conditions: 1000 nM; Entrez ERBB4; read-out: Percent Control
T10 construct: purchased Eurofins DiscoverX KINOMEscan
Source text: as §1

[11] = biological target: T11, MYO3A (Homo sapiens, UniProt Q8NEV4); experiment: KINOMEscan 1 μM, MYO3A; assay type: binding; conditions: 1000 nM; Entrez MYO3A; read-out: Percent Control
T11 construct: purchased Eurofins DiscoverX KINOMEscan
Source text: as §1

[12] = biological target: T12, STK36 (Homo sapiens, UniProt Q9NRP7); experiment: KINOMEscan 1 μM, STK36; assay type: binding; conditions: 1000 nM; Entrez STK36; read-out: Percent Control
T12 construct: purchased Eurofins DiscoverX KINOMEscan
Source text: as §1

[13] = biological target: T13, PRKD1 (Homo sapiens, UniProt Q15139); experiment: DiscoverX KINOMEscan binding assay at 1 μM, PRKD1; conditions: Compound Concentration 1000 nM, read-out: Percent Control
T13 construct: purchased Eurofins DiscoverX KINOMEscan
Source text: as §1

[14] = biological target: T14, ROCK2 (Homo sapiens, UniProt O75116); experiment: DiscoverX KINOMEscan binding assay at 1 μM, ROCK2; conditions: Compound Concentration 1000 nM, read-out: Percent Control
T14 construct: purchased Eurofins DiscoverX KINOMEscan
Source text: as §1

[15] = biological target: T15, ULK2 (Homo sapiens, UniProt Q8IYT8); experiment: KINOMEscan at 1 μM, ULK2; assay type: binding; conditions: 1000 nM, read-out: Percent Control
T15 construct: purchased Eurofins DiscoverX KINOMEscan
Source text: (§2) Supplement cells-12-00287-s001.zip/File S2. KinomeScan data for the CAMKK2 probe and negative control.xlsx, sheet "SGC-CAMKK2-1N" | column: Percent Control

[16] = biological target: T16, DCAMKL2 (Homo sapiens, UniProt Q8N568); experiment: KINOMEscan at 1 μM, DCAMKL2; assay type: binding; conditions: 1000 nM, read-out: Percent Control
T16 construct: purchased Eurofins DiscoverX KINOMEscan
Source text: as §2

[17] = biological target: T17, CDK5 (Homo sapiens, UniProt Q00535); experiment: KINOMEscan at 1 μM, CDK5; assay type: binding; conditions: 1000 nM, read-out: Percent Control
T17 construct: purchased Eurofins DiscoverX KINOMEscan
Source text: as §2

[18] = biological target: T18, TRKC (Homo sapiens, UniProt Q16288); experiment: KINOMEscan at 1 μM, TRKC; assay type: binding; conditions: 1000 nM, read-out: Percent Control
T18 construct: purchased Eurofins DiscoverX KINOMEscan
Source text: as §2

[19] = biological target: T19, MAK (Homo sapiens, UniProt P20794); experiment: KINOMEscan at 1 μM, MAK; assay type: binding; conditions: 1000 nM, read-out: Percent Control
T19 construct: purchased Eurofins DiscoverX KINOMEscan
Source text: as §2

[20] = biological target: T20, MST4 (Homo sapiens, UniProt Q9P289); experiment: KINOMEscan at 1 μM, MST4; assay type: binding; conditions: 1000 nM, read-out: Percent Control
T20 construct: purchased Eurofins DiscoverX KINOMEscan
T20 sequence (Q9P289 whole entry): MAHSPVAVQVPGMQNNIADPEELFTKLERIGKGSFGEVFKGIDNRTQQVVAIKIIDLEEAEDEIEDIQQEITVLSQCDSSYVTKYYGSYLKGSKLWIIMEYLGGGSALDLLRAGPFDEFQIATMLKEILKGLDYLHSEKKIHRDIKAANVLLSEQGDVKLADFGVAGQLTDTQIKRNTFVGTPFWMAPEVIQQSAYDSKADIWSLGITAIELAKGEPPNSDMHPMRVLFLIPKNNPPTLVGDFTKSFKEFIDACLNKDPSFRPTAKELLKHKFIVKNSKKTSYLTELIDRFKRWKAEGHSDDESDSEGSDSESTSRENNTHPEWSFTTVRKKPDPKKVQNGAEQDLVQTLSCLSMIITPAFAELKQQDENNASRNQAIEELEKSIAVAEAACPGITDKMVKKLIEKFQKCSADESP
Source text: as §2

[21] = biological target: T21, MST1 (Homo sapiens, UniProt Q13043); experiment: KINOMEscan binding assay at 1 μM, MST1; conditions: Compound Concentration 1000 nM; read-out: Percent Control
T21 construct: purchased Eurofins DiscoverX KINOMEscan
Source text: as §2

[22] = biological target: T22, TRKB (Homo sapiens, UniProt Q16620); experiment: KINOMEscan at 1 μM, TRKB; assay type: binding; conditions: 1000 nM, read-out: Percent Control
T22 construct: purchased Eurofins DiscoverX KINOMEscan
T22 sequence (Q16620 32-822): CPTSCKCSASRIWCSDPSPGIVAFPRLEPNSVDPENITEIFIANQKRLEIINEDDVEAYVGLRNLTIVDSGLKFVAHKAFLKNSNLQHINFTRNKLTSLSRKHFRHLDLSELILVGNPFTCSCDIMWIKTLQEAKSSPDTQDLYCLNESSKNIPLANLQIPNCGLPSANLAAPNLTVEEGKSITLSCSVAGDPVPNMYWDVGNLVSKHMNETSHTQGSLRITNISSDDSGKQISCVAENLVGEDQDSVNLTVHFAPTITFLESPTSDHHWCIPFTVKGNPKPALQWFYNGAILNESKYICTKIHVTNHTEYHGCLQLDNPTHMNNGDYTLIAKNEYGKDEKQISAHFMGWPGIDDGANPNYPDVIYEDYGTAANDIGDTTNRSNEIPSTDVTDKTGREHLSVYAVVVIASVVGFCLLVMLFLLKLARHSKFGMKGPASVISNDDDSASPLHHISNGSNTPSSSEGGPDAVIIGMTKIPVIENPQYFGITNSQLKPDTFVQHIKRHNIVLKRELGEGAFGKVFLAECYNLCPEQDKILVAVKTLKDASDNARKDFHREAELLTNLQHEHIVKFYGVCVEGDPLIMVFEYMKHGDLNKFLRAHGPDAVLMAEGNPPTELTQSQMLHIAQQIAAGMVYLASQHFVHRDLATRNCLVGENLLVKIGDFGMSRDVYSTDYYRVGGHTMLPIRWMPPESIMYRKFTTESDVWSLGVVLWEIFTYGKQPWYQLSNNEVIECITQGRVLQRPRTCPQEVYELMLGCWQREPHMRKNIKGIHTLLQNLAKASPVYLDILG
Source text: as §2

[23] = biological target: T23, RIPK4 (Homo sapiens, UniProt P57078); experiment: KINOMEscan at 1 μM, RIPK4; assay type: binding; conditions: 1000 nM, read-out: Percent Control
T23 construct: purchased Eurofins DiscoverX KINOMEscan
T23 sequence (P57078 whole entry): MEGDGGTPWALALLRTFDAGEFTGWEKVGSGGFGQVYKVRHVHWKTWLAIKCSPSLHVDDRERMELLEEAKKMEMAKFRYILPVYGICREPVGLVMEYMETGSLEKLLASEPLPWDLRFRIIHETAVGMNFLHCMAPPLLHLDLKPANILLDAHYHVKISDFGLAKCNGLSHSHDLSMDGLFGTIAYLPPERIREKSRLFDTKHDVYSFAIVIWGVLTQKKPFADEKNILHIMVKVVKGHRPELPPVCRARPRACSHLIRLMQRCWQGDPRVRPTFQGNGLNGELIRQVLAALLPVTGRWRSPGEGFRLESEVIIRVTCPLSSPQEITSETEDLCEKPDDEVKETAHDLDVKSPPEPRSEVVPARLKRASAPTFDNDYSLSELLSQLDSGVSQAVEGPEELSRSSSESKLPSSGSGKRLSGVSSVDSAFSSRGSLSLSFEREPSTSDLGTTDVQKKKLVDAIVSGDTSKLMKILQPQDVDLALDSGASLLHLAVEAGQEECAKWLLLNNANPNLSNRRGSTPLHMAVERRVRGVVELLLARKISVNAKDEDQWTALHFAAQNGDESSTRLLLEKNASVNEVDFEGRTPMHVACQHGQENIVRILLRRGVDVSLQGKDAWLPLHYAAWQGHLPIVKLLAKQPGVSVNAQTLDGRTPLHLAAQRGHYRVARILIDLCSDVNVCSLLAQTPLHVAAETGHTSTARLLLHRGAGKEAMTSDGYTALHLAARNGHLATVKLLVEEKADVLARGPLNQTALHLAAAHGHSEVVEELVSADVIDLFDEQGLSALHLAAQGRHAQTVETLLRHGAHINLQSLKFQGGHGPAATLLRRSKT
Source text: as §2

[24] = biological target: T24, CDK7 (Homo sapiens, UniProt P50613); experiment: KINOMEscan at 1 μM, CDK7; assay type: binding; conditions: 1000 nM, read-out: Percent Control
T24 construct: purchased Eurofins DiscoverX KINOMEscan
Source text: as §2

[25] = biological target: T25, HUNK (Homo sapiens, UniProt P57058); experiment: KINOMEscan at 1 μM, HUNK; assay type: binding; conditions: 1000 nM, read-out: Percent Control
T25 construct: purchased Eurofins DiscoverX KINOMEscan
Source text: as §2

[26] = biological target: T26, PLK2 (Homo sapiens, UniProt Q9NYY3); experiment: KINOMEscan at 1 μM, PLK2; assay type: binding; conditions: 1000 nM, read-out: Percent Control
T26 construct: purchased Eurofins DiscoverX KINOMEscan
T26 sequence (Q9NYY3 whole entry): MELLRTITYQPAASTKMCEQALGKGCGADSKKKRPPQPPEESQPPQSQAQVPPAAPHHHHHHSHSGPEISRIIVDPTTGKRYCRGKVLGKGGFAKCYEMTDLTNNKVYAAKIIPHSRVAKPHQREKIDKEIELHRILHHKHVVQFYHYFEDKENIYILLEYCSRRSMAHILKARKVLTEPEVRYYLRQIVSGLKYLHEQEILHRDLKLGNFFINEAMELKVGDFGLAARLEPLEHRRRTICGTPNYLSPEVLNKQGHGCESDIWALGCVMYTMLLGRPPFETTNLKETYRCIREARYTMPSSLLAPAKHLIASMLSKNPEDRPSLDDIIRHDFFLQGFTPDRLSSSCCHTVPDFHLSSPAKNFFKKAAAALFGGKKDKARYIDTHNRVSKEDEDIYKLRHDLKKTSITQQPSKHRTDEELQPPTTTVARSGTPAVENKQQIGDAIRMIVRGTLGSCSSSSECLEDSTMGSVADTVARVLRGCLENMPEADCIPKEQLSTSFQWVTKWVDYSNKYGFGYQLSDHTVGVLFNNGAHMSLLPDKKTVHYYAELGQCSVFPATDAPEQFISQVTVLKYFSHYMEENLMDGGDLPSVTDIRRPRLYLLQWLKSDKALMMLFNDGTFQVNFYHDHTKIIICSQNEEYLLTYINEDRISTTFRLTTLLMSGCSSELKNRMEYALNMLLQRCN
Source text: as §2

[27] = biological target: T27, AURKB (Homo sapiens, UniProt Q96GD4); experiment: KINOMEscan at 1 μM, AURKB; assay type: binding; conditions: 1000 nM, read-out: Percent Control
T27 construct: purchased Eurofins DiscoverX KINOMEscan
Source text: as §2

[28] = biological target: T28, ACVRL1 (Homo sapiens, UniProt P37023); experiment: KINOMEscan at 1 μM, ACVRL1; assay type: binding; conditions: 1000 nM, read-out: Percent Control
T28 construct: purchased Eurofins DiscoverX KINOMEscan
T28 sequence (P37023 22-503): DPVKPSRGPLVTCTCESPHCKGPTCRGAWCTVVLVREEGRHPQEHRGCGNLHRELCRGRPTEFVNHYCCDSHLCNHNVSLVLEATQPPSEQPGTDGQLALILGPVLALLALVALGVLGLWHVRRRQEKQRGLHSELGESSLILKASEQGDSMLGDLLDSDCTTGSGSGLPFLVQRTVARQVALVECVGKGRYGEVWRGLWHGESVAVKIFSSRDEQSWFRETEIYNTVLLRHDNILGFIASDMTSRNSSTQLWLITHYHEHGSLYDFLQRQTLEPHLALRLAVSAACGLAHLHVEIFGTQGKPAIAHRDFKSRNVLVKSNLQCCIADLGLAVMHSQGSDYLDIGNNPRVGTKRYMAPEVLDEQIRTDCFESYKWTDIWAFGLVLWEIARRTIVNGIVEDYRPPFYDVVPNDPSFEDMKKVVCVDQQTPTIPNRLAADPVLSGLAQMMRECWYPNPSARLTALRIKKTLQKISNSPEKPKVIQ
Source text: as §2

[29] = biological target: T29, CSNK2A2 (Homo sapiens, UniProt P19784); experiment: KINOMEscan at 1 μM, CSNK2A2; assay type: binding; conditions: 1000 nM, read-out: Percent Control
T29 construct: purchased Eurofins DiscoverX KINOMEscan
T29 sequence (P19784 whole entry): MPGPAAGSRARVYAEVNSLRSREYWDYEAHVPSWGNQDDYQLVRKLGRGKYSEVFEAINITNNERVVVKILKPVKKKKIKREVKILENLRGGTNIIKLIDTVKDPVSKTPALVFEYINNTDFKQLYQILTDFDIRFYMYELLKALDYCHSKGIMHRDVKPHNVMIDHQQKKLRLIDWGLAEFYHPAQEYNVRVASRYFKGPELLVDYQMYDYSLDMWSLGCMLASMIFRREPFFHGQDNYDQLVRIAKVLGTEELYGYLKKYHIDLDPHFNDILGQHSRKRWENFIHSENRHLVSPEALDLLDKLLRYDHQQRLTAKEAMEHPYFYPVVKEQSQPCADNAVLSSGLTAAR
Source text: as §2

[30] = biological target: T30, RIPK5 (Homo sapiens, UniProt Q6XUX3); experiment: KINOMEscan at 1 μM, RIPK5; assay type: binding; conditions: 1000 nM, read-out: Percent Control
T30 construct: purchased Eurofins DiscoverX KINOMEscan
Source text: as §2

[31] = biological target: T31, PHKG2 (Homo sapiens, UniProt P15735); experiment: KINOMEscan at 1 μM, PHKG2; assay type: binding; conditions: 1000 nM, read-out: Percent Control
T31 construct: purchased Eurofins DiscoverX KINOMEscan
Source text: as §2

[32] = biological target: T32, RPS6KA4(Kin.Dom.1-N-terminal) (Homo sapiens, UniProt O75676); experiment: KINOMEscan binding assay at 1 μM, RPS6KA4(Kin.Dom.1-N-terminal); conditions: Compound Concentration 1000 nM; read-out: Percent Control
T32 construct: RPS6KA4(Kin.Dom.1-N-terminal); purchased Eurofins DiscoverX KINOMEscan
Source text: as §2

[33] = biological target: T33, PIK3CA(E545K) (Homo sapiens, UniProt P42336, E545K); experiment: KINOMEscan at 1 μM, PIK3CA(E545K); assay type: binding; conditions: 1000 nM, read-out: Percent Control
T33 construct: purchased Eurofins DiscoverX KINOMEscan
Source text: as §2

[34] = biological target: T34, PDGFRA (Homo sapiens, UniProt P16234); experiment: KINOMEscan at 1 μM, PDGFRA; assay type: binding; conditions: 1000 nM, read-out: Percent Control
T34 construct: purchased Eurofins DiscoverX KINOMEscan
Source text: as §2

T1 sequence (Q15418 392-735 limits assumed): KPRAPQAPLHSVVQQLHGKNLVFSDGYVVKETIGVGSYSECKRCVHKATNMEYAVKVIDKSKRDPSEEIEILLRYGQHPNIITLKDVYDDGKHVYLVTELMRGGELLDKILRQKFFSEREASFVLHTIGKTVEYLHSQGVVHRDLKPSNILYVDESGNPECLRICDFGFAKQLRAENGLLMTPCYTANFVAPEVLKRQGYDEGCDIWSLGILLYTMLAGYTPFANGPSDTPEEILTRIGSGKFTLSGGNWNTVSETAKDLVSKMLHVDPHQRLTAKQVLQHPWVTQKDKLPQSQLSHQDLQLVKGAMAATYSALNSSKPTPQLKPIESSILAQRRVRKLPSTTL

Cc1cccc(-c2cnc3occ(-c4ccc(C(=O)O)c(C5CCCC5)c4)c3c2)c1 [SGC-CAMKK2-1 (YL-36)]
remaining binding at 1 µM [1]: 80%
remaining binding at 1 µM [2]: 100%
remaining binding at 1 µM [3]: 92%
remaining binding at 1 µM [4]: 92%
remaining binding at 1 µM [5]: 85%
remaining binding at 1 µM [6]: 59%
remaining binding at 1 µM [7]: 98%
remaining binding at 1 µM [8]: 98%
remaining binding at 1 µM [9]: 100%
remaining binding at 1 µM [10]: 100%
remaining binding at 1 µM [11]: 100%
remaining binding at 1 µM [12]: 89%
remaining binding at 1 µM [13]: 100%
remaining binding at 1 µM [14]: 100%

O=C(O)c1ccc(-c2coc3ncc(-c4ccccc4)cc23)cc1Cl [SGC-CAMKK2-1N (UNC-YL-83)]
remaining binding at 1 µM [15]: 71%
remaining binding at 1 µM [16]: 100%
remaining binding at 1 µM [17]: 100%
remaining binding at 1 µM [18]: 78%
remaining binding at 1 µM [19]: 83%
remaining binding at 1 µM [20]: 64%
remaining binding at 1 µM [21]: 100%
remaining binding at 1 µM [22]: 81%
remaining binding at 1 µM [23]: 70%
remaining binding at 1 µM [24]: 66%
remaining binding at 1 µM [25]: 87%
remaining binding at 1 µM [26]: 91%
remaining binding at 1 µM [27]: 62%
remaining binding at 1 µM [28]: 100%
remaining binding at 1 µM [29]: 98%
remaining binding at 1 µM [30]: 78%
remaining binding at 1 µM [31]: 68%
remaining binding at 1 µM [32]: 100%
remaining binding at 1 µM [33]: 93%
remaining binding at 1 µM [34]: 74%
